Assay results as given in ChEMBL document CHEMBL3243937, “Adriamycin analogues. 2. Synthesis of 13-deoxyanthracyclines” (1978).

What was measured:
P388 [1] = assay: Antitumor activity against mouse P388 cells allografted in mouse assessed as increase in survival time at 0.39 mg/kg, ip qd administered starting from day 1 to day 9 post challenge relative to control; assay type: functional; conditions: route intraperitoneal
P388 [2] = assay: Antitumor activity against mouse P388 cells allografted in mouse assessed as increase in survival time at 0.78 mg/kg, ip qd administered starting from day 1 to day 9 post challenge relative to control; assay type: functional; conditions: route intraperitoneal
Calf thymus DNA = assay: Binding affinity to calf thymus DNA by spectral analysis; assay type: nucleic-acid assay; conditions: Bos taurus
L1210 [3] = assay: Inhibition of DNA synthesis in mouse L1210 cells compound preincubated for 3 hrs followed by [3H]thymidine addition measured after 1 hr by scintillation counting; assay type: functional
P388 [4] = assay: Antitumor activity against mouse P388 cells allografted in mouse assessed as increase in survival time at 1.56 mg/kg, ip qd administered starting from day 1 to day 9 post challenge relative to control; assay type: functional; conditions: route intraperitoneal
L1210 [5] = assay: Inhibition of RNA synthesis in mouse L1210 cells compound preincubated for 3 hrs followed by [3H]uridine addition measured after 1 hr by scintillation counting; assay type: functional
P388 [6] = assay: Antitumor activity against mouse P388 cells allografted in mouse assessed as increase in survival time at 3.13 mg/kg, ip qd administered starting from day 1 to day 9 post challenge relative to control; assay type: functional; conditions: route intraperitoneal
P388 [7] = assay: Antitumor activity against mouse P388 cells allografted in mouse assessed as increase in survival time at 6.25 mg/kg, ip qd administered starting from day 1 to day 9 post challenge relative to control; assay type: functional; conditions: route intraperitoneal
P388 [8] = assay: Antitumor activity against mouse P388 cells allografted in mouse assessed as increase in survival time at 4 mg/kg, ip qd administered starting on day 5,9 and 13 post challenge relative to control; assay type: functional; conditions: route intraperitoneal
P388 [9] = assay: Antitumor activity against mouse P388 cells allografted in mouse assessed as increase in survival time at 8 mg/kg, ip qd administered starting on day 5,9 and 13 post challenge relative to control; assay type: functional; conditions: route intraperitoneal
P388 [10] = assay: Antitumor activity against mouse P388 cells allografted in mouse assessed as increase in survival time at 16 mg/kg, ip qd administered starting on day 5,9 and 13 post challenge relative to control; assay type: functional; conditions: route intraperitoneal
P388 [11] = assay: Antitumor activity against mouse P388 cells allografted in mouse assessed as increase in survival time at 0.20 mg/kg, ip qd administered starting from day 1 to day 9 post challenge relative to control; assay type: functional; conditions: dose 0.2 mg/kg; route intraperitoneal
P388 [12] = assay: Antitumor activity against mouse P388 cells allografted in mouse assessed as increase in survival time at 2 mg/kg, ip qd administered starting on day 5,9 and 13 post challenge relative to control; assay type: functional; conditions: route intraperitoneal
P388 [13] = assay: Antitumor activity against mouse P388 cells allografted in mouse assessed as increase in survival time at 1 mg/kg, ip qd administered starting on day 5,9 and 13 post challenge relative to control; assay type: functional; conditions: route intraperitoneal
P388 [14] = assay: Antitumor activity against mouse P388 cells allografted in mouse assessed as increase in survival time at 8 mg/kg, ip qd administered starting from day 1 to day 9 post challenge relative to control; assay type: functional; conditions: route intraperitoneal
P388 [15] = assay: Antitumor activity against mouse P388 cells allografted in mouse assessed as increase in survival time at 12 mg/kg, ip qd administered starting from day 1 to day 9 post challenge relative to control; assay type: functional; conditions: route intraperitoneal
P388 [16] = assay: Antitumor activity against mouse P388 cells allografted in mouse assessed as increase in survival time at 3.5 mg/kg, ip qd administered starting from day 1 to day 9 post challenge relative to control; assay type: functional; conditions: route intraperitoneal
P388 [17] = assay: Antitumor activity against mouse P388 cells allografted in mouse assessed as increase in survival time at 1.5 mg/kg, ip qd administered starting from day 1 to day 9 post challenge relative to control; assay type: functional; conditions: route intraperitoneal
P388 [18] = assay: Antitumor activity against mouse P388 cells allografted in mouse assessed as increase in survival time at 5.3 mg/kg, ip qd administered starting from day 1 to day 9 post challenge relative to control; assay type: functional; conditions: route intraperitoneal
P388 [19] = assay: Antitumor activity against mouse P388 cells allografted in mouse assessed as increase in survival time at 4 mg/kg, ip qd administered starting from day 1 to day 9 post challenge relative to control; assay type: functional; conditions: route intraperitoneal

## CC[C@]1(O)Cc2c(O)c3c(c(O)c2[C@@H](O[C@H]2C[C@H](N)[C@H](O)[C@H](C)O2)C1)C(=O)c1c(OC)cccc1C3=O
P388 [1]
  T/C: 140%
P388 [2]
  T/C: 134%
Calf thymus DNA
  ΔTm: 50 °C
L1210 [3]
  IC50: 1300 nM
P388 [4]
  T/C: 160%
L1210 [5]
  IC50: 840 nM
P388 [6]
  T/C: 160%

## COc1cccc2c1C(=O)c1c(O)c3c(c(O)c1C2=O)C[C@@](O)(CCO)C[C@@H]3O[C@H]1C[C@H](N)[C@H](O)[C@H](C)O1 [13-DEOXYDOXORUBICIN]
P388 [7]
  T/C: 153%
P388 [1]
  T/C: 140%
P388 [2]
  T/C: 161%
Calf thymus DNA
  ΔTm: 6.15 °C
L1210 [3]
  IC50: 1800 nM
P388 [4]
  T/C: 156%
L1210 [5]
  IC50: 1100 nM
P388 [6]
  T/C: 164%

## COc1cccc2c1C(=O)c1c(O)c3c(c(O)c1C2=O)C[C@@](O)(C(C)=O)C[C@@H]3O[C@H]1C[C@H](N)[C@H](O)[C@H](C)O1 [DAUNORUBICIN]
P388 [1]
  T/C: 153%
P388 [2]
  T/C: 167%
P388 [8]
  T/C: 131%
L1210 [3]
  IC50: 660 nM
P388 [9]
  T/C: 134%
P388 [4]
  T/C: 148%
L1210 [5]
  IC50: 330 nM
P388 [10]
  T/C: 127%
P388 [11]
  T/C: 144%

## COc1cccc2c1C(=O)c1c(O)c3c(c(O)c1C2=O)C[C@@](O)(C(=O)CO)C[C@@H]3O[C@H]1C[C@H](N)[C@H](O)[C@H](C)O1 [DOXORUBICIN]
P388 [1]
  T/C: 174%
P388 [2]
  T/C: 197%
P388 [8]
  T/C: 142%
Calf thymus DNA
  ΔTm: 13.4 °C
P388 [12]
  T/C: 133%
L1210 [3]
  IC50: 1500 nM
P388 [9]
  T/C: 157%
P388 [4]
  T/C: 176%
L1210 [5]
  IC50: 580 nM
P388 [10]
  T/C: 130%
P388 [13]
  T/C: 133%
P388 [11]
  T/C: 160%

## CC[C@@]1(O)C[C@H](O[C@H]2C[C@H](N)[C@H](O)[C@H](C)O2)c2c(O)c3c(c(O)c2[C@H]1C(=O)OC)C(=O)c1cccc(O)c1C3=O.Cl
P388 [14]
  T/C: 140%
P388 [15]
  T/C: 141%
Calf thymus DNA
  ΔTm: 7.6 °C
P388 [16]
  T/C: 130%
L1210 [3]
  IC50: 5600 nM
P388 [17]
  T/C: 127%
P388 [18]
  T/C: 139%
L1210 [5]
  IC50: 2600 nM
P388 [19]
  T/C: 132%
